Test results: patent US9271493B2, “Methods for microbial biofilm destruction” (priority 2012, dated 2016)
Read-outs that look alike come from different tables or passages of the source.

Key:
UTI89 [1] = assay: colony biofilm formation on YESCA agar; assay type: cell-based, uropathogenic E. coli; conditions: for biofilm formation on agar (colony morphology): UTI89 on YESCA agar
Experimental: (§1) Growth conditions. UTI89, UTI89ΔcsgA, MC4100, and MC4100Δcsg were grown on YESCA (0.5 g/L yeast extract; 10 g/L Casamino acids) agar supplemented with additional compounds as indicated.
(§2) Biofilm assays. Colony biofilm formation was initiated by spotting 10 μl of overnight bacterial culture onto a YESCA agar plate (Kolodkin-Gal et al. (2010) Science 328:627-629). Colony morphology was observed after designated growth times at 26° C. Biofilm in YESCA broth attached to plastic (polyvinyl chloride, PVC) was determined using the Kolter crystal violet assay as described by O'Toole et al. (1998) Mol. Microbiol. 28:449-461. Briefly, bacterial cells were grown in 96-well PVC plates; unattached cells were washed away; and cells remaining associated with the PVC wells were stained with 0.1% crystal violet. The extent of biofilm formation was quantified by measuring the absorbance of crystal violet at OD595 after dissolving the PVC-associated biomass in 95% ethanol. The percent biofilm represents the increase in biofilm formation in the presence of various concentrations of DMSO and ethanol relative to biofilm formation when no compound was present. The mean of triplicate individual experiments was used and error bars represent the standard deviation. Pellicle formation was initiated by inoculating 4 μL of an overnight bacterial culture grown in YESCA broth in 4 mL YESCA in 12-well-plate wells and incubated at 26° C. Pellicle formation was inspected visually and assessed by perturbation with a pipet tip after 72 hours of growth.

UTI89 [2] = assay: pellicle formation (biofilm at the air-liquid interface); assay type: cell-based, uropathogenic E. coli; conditions: for pellicle formation / biofilm formation at the air-liquid interface: UTI89; for concentration preventing formation of a biofilm at the air-liquid interface: UTI89, complete inhibition
Experimental: as §2

UTI89 [3] = assay: biofilm attached to PVC plastic, 96-well crystal violet assay; assay type: cell-based, uropathogenic E. coli
Experimental: as §2

amyloid β = amyloid β (Homo sapiens, UniProt P05067); conditions: oligomer form and fibril form; Yang et al. 2005; cited from earlier work
E. coli strain MC4100 = assay: fibronectin-binding assay (adhesion to fibronectin-coated plates); assay type: cell-based; conditions: MC4100 grown under curli-producing conditions on agar in the presence of compound; dose-dependent
Source text: We employed a commonly used fibronectin-binding assay to determine whether curcumin blocks adhesion of E. coli strain MC4100 to fibronectin-coated plates. MC4100 is the E. coli strain in which curli biogenesis was first described. […] UTI89, on the other hand, is a prototypical biofilm-competent strain that forms biofilms on agar, on plastic, and at an air-liquid interface when expressing curli and cellulose. Since curli are sufficient to mediate binding to fibronectin, the use of MC4100 readily allows one to determine whether a compound or external stimulus can influence curli-dependent adhesion.
as §1

curli [4] = target: T1, curli (Escherichia coli, UniProt P28307); conditions: McCrate, Zhou, and Cegelski 2013; cited from earlier work
[5] = target: Alzheimer's β-amyloid fibrils (Homo sapiens, UniProt P05067); conditions: Ono et al. 2004; cited from earlier work
E. coli = assay: biofilm formation attached to Teflon (1 mL Teflon beakers, crystal violet); assay type: cell-based; conditions: 48 hours at 26° C. in YESCA broth
Experimental: FIG. 4. Curcumin and dim ethyl curcumin reduce E. coli biofilm formation attached to Teflon using 1 mL Teflon beakers. After bacterial incubation for 48 hours at 26° C. in YESCA nutrient broth in the presence or absence of compounds, planktonic and loosely associated bacteria were washed from the beakers and adherent bacteria were stained with crystal violet, dissolved in ethanol and quantified by spectrophotometry.
Teflon is often used as a material in various industrial and biomedical applications, including the production of catheters. Teflon is often employed due to its general anti-adherent properties. Yet, even E. coli can adhere to Teflon and forms biofilms on Teflon surfaces. Thus, we also examined the ability of curcumin and DMC to prevent biofilm formation attached to Teflon using small 1-mL Teflon beakers.

[6] = system: curli proteins, CsgA and CsgG; assay: Western blot analysis of cell-associated curli proteins; assay type: cell-based, E. coli
Experimental: Western blot analysis. The cell-associated curli proteins, CsgA and CsgG, were examined by immunoblot assays as described (41). Briefly, whole-cell samples with equivalent cell number were prepared as cell pellets of 1 mL cell culture with an OD600 of 1.0. Each pellet was treated with 100 μL hexafluoroisopropanol (HFIP) to dissociate curli subunits (41). HFIP was removed by vacuum centrifugation, and samples were resuspended in SDS-PAGE loading buffer. Protein gel electrophoresis was carried out using 12% SDS-PAGE gels (Invitrogen) and blotted onto […] nitrocellulose transfer membranes (Whatman). The polyclonal rabbit antiserum to CsgA or CsgG was used as the primary antibody and horseradish peroxidase (HRP) conjugated goat anti-rabbit antibody (Pierce) was used as the secondary antibody (55).

curli [7] = target: T1, curli; conditions: cited from earlier work

T1 sequence (P28307 21-151): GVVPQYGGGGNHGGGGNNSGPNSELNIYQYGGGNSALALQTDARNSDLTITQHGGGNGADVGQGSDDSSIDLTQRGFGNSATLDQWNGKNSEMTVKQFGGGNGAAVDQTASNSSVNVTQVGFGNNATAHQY
Sequence of Alzheimer's β-amyloid fibrils (P05067 672-713 limits assumed): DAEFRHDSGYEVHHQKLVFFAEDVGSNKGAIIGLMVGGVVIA
Sequence of amyloid β (P05067 672-713 limits assumed): as above

Q: For `Nc1c(/N=N/c2ccc(-c3ccc(/N=N/c4cc(S(=O)(=O)O)c5ccccc5c4N)cc3)cc2)cc(S(=O)(=O)O)c2ccccc12` [Congo red], which “biofilm formation on agar (colony morphology)” value (UTI89 [1]) is on record?
A: Its value is “does not block biofilm formation”.

Q: What about the “pellicle formation / biofilm formation at the air-liquid interface” value (UTI89 [2]) of the same molecule?
A: The value was “not”.

Q: Which results are given for `COc1ccc(/C=C/C(=O)CC(=O)/C=C/c2ccc(OC)c(OC)c2)cc1OC` [DMC, dimethoxycurcumin]?
A: concentration blocking biofilm formation attached to plastic (PVC) (UTI89 [3]): 10 µM; concentration preventing formation of a biofilm at the air-liquid interface (UTI89 [2]): 10 µM

Q: Which “binding to amyloid β” value (amyloid β) does the source give for `COc1cc(/C=C/C(=O)CC(=O)/C=C/c2ccc(O)c(OC)c2)ccc1O` [curcumin] here?
A: Its value is “bind”.

Q: What about the “adhesion to the protein fibronectin” value (E. coli strain MC4100) of the same molecule?
A: Its value is “reduced adhesion”.

Q: And the binding to curli (curli [4])?
A: The binding to curli was “binding to curli”.

Q: And the “amyloid fibril formation in vitro” value [5]?
A: The value was “prevent amyloid fibril formation”.

Q: What about the “concentration blocking biofilm formation attached to plastic (PVC)” value (UTI89 [3]) of the same molecule?
A: The value was 25 µM.

Q: What about the “concentration blocking biofilm formation attached to plastic (PVC)” value (UTI89 [3]; listed as curumin) of the same molecule?
A: Its value is 10 µM.

Q: What about the “biofilm inhibition on agar after 5 days” value (UTI89 [1]; UTI89, 5 days of bacterial growth) of the same molecule?
A: The value was “diminished after 5 days”.

Q: What about the “biofilm formation on agar (colony morphology)” value (UTI89 [1]) of the same molecule?
A: The value was “lost the hallmark rough and wrinkled phenotype”.

Q: What about the “pellicle formation / biofilm formation at the air-liquid interface” value (UTI89 [2]) of the same molecule?
A: The value was “completely prevent pellicle formation”.

Q: And the “concentration preventing formation of a biofilm at the air-liquid interface” value (UTI89 [2])?
A: The value was 25 µM.

Q: What about the “biofilm formation attached to Teflon” value (E. coli) of the same molecule?
A: Its value is “effective at significantly preventing biofilm formation”.

Q: And the “production of curli proteins” value ([6]; MC4100, Western blot)?
A: The value was “did not influence”.

Q: What about the curli production ([6]; UTI89, Western blot) of the same molecule?
A: The curli production was “not affected”.

Q: With LL-37 as the molecule, how does the curli formation (curli [7]) read?
A: The curli formation was “inhibits curli formation”.
